Test results published in EP3283473B1, “GHRELIN O-ACYL TRANSFERASE INHIBITORS” (Eli Lilly and Company, priority 2015, dated 2016).

Molecular target: T1, GOAT enzyme (Mus musculus, UniProt P0C7A3)
T1 construct: from tissue; host or cells: living male C57BL/6 mice (endogenous enzyme)
T1 sequence (P0C7A3 1-435): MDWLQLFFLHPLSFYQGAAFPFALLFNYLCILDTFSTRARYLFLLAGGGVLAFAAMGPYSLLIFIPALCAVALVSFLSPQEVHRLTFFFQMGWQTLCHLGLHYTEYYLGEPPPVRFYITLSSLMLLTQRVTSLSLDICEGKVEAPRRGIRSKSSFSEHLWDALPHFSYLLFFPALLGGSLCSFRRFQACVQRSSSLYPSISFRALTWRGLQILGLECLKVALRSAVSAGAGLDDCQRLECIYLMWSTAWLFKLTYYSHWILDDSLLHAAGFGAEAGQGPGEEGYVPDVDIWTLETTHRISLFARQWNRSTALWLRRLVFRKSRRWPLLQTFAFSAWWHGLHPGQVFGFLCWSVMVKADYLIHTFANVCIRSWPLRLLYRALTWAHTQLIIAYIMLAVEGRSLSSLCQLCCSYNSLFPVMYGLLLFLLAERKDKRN
Assay: In vivo dose dependent 3 day BID study for GOAT inhibitor (plasma AG and UAG by ELISA)
Parameters: species or system male C57BL/6 mice
Conditions: for decreases plasma AG / increases UAG: administration for 3 days; for decreases plasma AG / increases UAG / AG (% of control) / AG/total-ghrelin (% of vehicle control) / UAG (% of vehicle control): mice; for reduction in AG to total ghrelin ratio: compared to vehicle-treated control animals; for AG (% of control) / AG/total-ghrelin (% of vehicle control) / UAG (% of vehicle control): oral gavage BID, 3 days, plasma
Protocol: Comparing the change in the ratio of AG to total ghrelin in the compound treated group and that of the vehicle treated group reflects the degree of GOAT enzyme inhibition in vivo, due to the dynamic processing of UAG to AG by the GOAT enzyme. In the in vivo pharmacodynamic studies herein, the levels of AG and UAG in plasma and stomach in the vehicle and compound treated groups are measured by ELISA specifically to these two analytes. The total ghrelin level of each sample is computed as the sum of AG and UAG by these ELISA measurements. The ratio of AG to total ghrelin is defined by the level of AG in each sample divided by the level of total ghrelin in the same sample. The levels of AG, UAG and ratio of AG to total ghrelin in the vehicle treated group is computed and set as 100%. The relative change of these parameters in the compound treated group is then computed to determine the effectiveness of the test compound.
Purchase male C57BL/6 mice from Harlan (Indianapolis, IN) at 9 weeks of age. House the mice individually in a temperature-controlled (24 °C) facility with a 12 hours light/dark cycle (lights on 2200 h), and allow free access to a standard rodent chow (diet 2014, Harlan) and water. Typically, use the mice when they are 10-13 weeks of age at the time of the study. On day 0 of the experiment, randomize the mice into treatment groups (N=7/group) so each group has similar mean body weights. On day 1 and day 2, treat the animals with vehicle (1% hydroxyethylcellulose, 0.25% TWEEN™ 80, 0.05% antifoam) or test compound prepared in the vehicle as suspension at various dosages by oral gavage at 7 am and 7 pm. On day 3, fast the animals, move them into clean cages and dose with vehicle or the test compound again at 8 am by oral gavage. That same day at 1 pm, sacrifice the animals by decapitation to collect blood. For details of blood collection and plasma treatments see Blood collection and Extraction of Ghrelin from Plasma section below.
Collect approximately 600 µL blood into a pre-weighed EDTA tube containing 600 µL (defined as Vpreservative) freshly-prepared preservative (4 mM PEFABLOC® [4-(2-aminoethyl) benzenesulfonyl fluoride hydrochloride], 72 mM NaCl, 58 mM NaF, 0.032 N hydrochloric acid, pH 3.0) and mix immediately. Weigh the tube again and keep on ice. To accurately determine the exact blood volume of each sample using this blood collection procedure, the weight of the blood for each mouse is computed using the following equation: Weight of Blood = (Weight of the tube containing Blood + preservative)−; (Weight of the tube containing preservative) [formula] Blood volume(Vblood) = (Weight of blood)/1.06 [formula]
Within 15 minutes after the blood collection, samples are centrifuged at 5000 rpm at 4 °C for 8 min. Remove plasma (650 µL) to a 5 mL glass tube containing 1 N hydrochloric acid (65µL), mix and keep on ice.
AG and UAG are extracted from plasma using SEP-PAK®_C18 column to remove interference prior to performing the ELISA. The solid phase extraction of AG and UAG peptides by SEP-PAK®_C18 columns can be performed on a vacuum manifold (Waters Corp) or using a peristaltic pump. The sample SEP-PAK®_column extraction procedure is independently applied to the plasma sample obtained from each individual mouse. The general extraction protocol is described as follows.
All solutions used for the entire protocol of the SEP-PAK® column extraction should be at ice cold condition. Wet SEP-PAK®_columns (WAT054960, Waters Corp, Milford MA) with 99.9% ACN/0.1% TFA (1 mL of solution of 100 mL ACN/0.1 mL TFA). […] Once liquid is removed from the column, stop the pressure. Equilibrate the columns with 3% ACN/0.1% TFA (1 mL of 97 mL water, 3 mL ACN, 0.1 mL TFA). […] Dilute approximately 650 µL acidified plasma (defined as Vplasma added to column) to 1.4 mL ice cold 0.1% TFA. Load all diluted acidified plasma from the previous step onto the columns. […]

SMILES: Cc1nc(C(F)(F)F)nc(N)c1CCC1CCN(C(=O)[C@H](C)NC(=O)c2ccnn2C)CC1 [Example 2, N-[(1S)-2-[4-[2-[4-Amino-6-methyl-2-(trifluoromethyl)pyrimidin-5-yl]ethyl]-1-piperidyl]-1-methyl-2-oxo-ethyl]-2-methyl-pyrazole-3-carboxamide]
- decreases plasma AG (0.1 mg/kg): 40%
- increases UAG (0.1 mg/kg): 2.10 fold
- reduction in AG to total ghrelin ratio (0.1 mg/kg): 57%
- AG (% of control) (0.1 mg/kg): 60 ± 8 (n=7) % of control
- AG/total-ghrelin (% of vehicle control) (0.1 mg/kg): 43 ± 3 (n=7) % of vehicle control
- UAG (% of vehicle control) (0.1 mg/kg): 210 ± 43 (n=7) % of vehicle control
- decreases plasma AG (0.3 mg/kg): 60%
- increases UAG (0.3 mg/kg): 2.22 fold
- reduction in AG to total ghrelin ratio (0.3 mg/kg): 62%
- AG (% of control) (0.3 mg/kg): 40 ± 10 (n=7) % of control
- AG/total-ghrelin (% of vehicle control) (0.3 mg/kg): 28 ± 1 (n=7) % of vehicle control
- UAG (% of vehicle control) (0.3 mg/kg): 222 ± 54 (n=7) % of vehicle control
- decreases plasma AG (1 mg/kg): 56%
- increases UAG (1 mg/kg): 3.57 fold
- reduction in AG to total ghrelin ratio (1 mg/kg): 79%
- AG (% of control) (1 mg/kg): 44 ± 6 (n=14) % of control
- AG/total-ghrelin (% of vehicle control) (1 mg/kg): 21 ± 1 (n=14) % of vehicle control
- UAG (% of vehicle control) (1 mg/kg): 357 ± 30 (n=14) % of vehicle control
- decreases plasma AG (3 mg/kg): 63%
- increases UAG (3 mg/kg): 3.49 fold
- reduction in AG to total ghrelin ratio (3 mg/kg): 82%
- AG (% of control) (3 mg/kg): 37 ± 9.6 (n=14) % of control
- AG/total-ghrelin (% of vehicle control) (3 mg/kg): 18 ± 5 (n=14) % of vehicle control
- UAG (% of vehicle control) (3 mg/kg): 349 ± 41 (n=14) % of vehicle control
- decreases plasma AG (10 mg/kg): 63%
- increases UAG (10 mg/kg): 3.78 fold
- reduction in AG to total ghrelin ratio (10 mg/kg): 82%
- AG (% of control) (10 mg/kg): 37 ± 9.9 (n=7) % of control
- AG/total-ghrelin (% of vehicle control) (10 mg/kg): 18 ± 3 (n=7) % of vehicle control
- UAG (% of vehicle control) (10 mg/kg): 378 ± 59 (n=7) % of vehicle control
